From PubChem BioAssay (NCI)
“And” between values parts separate entries of the source, which are not always exact repeats. Equal values may be shown once.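 Compound exposure: 48 hours, 5 concentrations, 96-well plates. Abbreviation: GI50, concentration required for 50% inhibition of growth. TGI is the concentration that stops growth completely.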

How the values were obtained:
Assay in all cases: DTP human tumour cell line panel, 48 h
SK-MEL-5 melanoma = test system: SK-MEL-5 melanoma
786-0 renal = test system: 786-0 renal
MDA-MB-231 breast = test system: MDA-MB-231 breast
SR leukemia = test system: SR leukemia
OVCAR-3 ovarian = test system: OVCAR-3 ovarian
RXF 393 renal = test system: RXF 393 renal
XF 498 CNS = test system: XF 498 CNS
HOP-18 NSCLC = test system: HOP-18 NSCLC
DMS 114 small cell lung = test system: DMS 114 small cell lung
LXFL 529 NSCLC = test system: LXFL 529 NSCLC
DLD-1 colon = test system: DLD-1 colon
KM20L2 colon = test system: KM20L2 colon
DMS 273 small cell lung = test system: DMS 273 small cell lung
M19-MEL melanoma = test system: M19-MEL melanoma
SNB-78 CNS = test system: SNB-78 CNS

SMILES	TGI (SK-MEL-5 melanoma)	TGI (786-0 renal)	TGI (MDA-MB-231 breast)	TGI (SR leukemia)	TGI (OVCAR-3 ovarian)	TGI (RXF 393 renal)	GI50 (MDA-MB-231 breast)	GI50 (OVCAR-3 ovarian)	TGI (XF 498 CNS) [µM]	TGI (HOP-18 NSCLC) [µM]	TGI (DMS 114 small cell lung) [µM]	TGI (LXFL 529 NSCLC) [µM]	TGI (DLD-1 colon) [µM]	TGI (KM20L2 colon) [µM]	TGI (DMS 273 small cell lung) [µM]	TGI (M19-MEL melanoma) [µM]	TGI (SNB-78 CNS) [µM]	GI50 (RXF 393 renal) [µM]
CCOC(=O)n1ccc2c(C(=O)OC)c(C(=O)OC)cc(/C(=C/C(=O)OC)C(=O)OC)c21	> 100 µM	> 100 µM	> 100 µM	> 100 µM	> 100 µM	> 100 µM												
CC(=O)O[C@H]1C(=O)[C@@]2(C)[C@H]([C@H](OC(=O)c3ccccc3)[C@]3(O)C[C@H](OC(=O)[C@H](O)[C@@H](NC(=O)C(C)(O)C(C)O)c4ccccc4)C(C)=C1C3(C)C)[C@]1(OC(C)=O)CO[C@@H]1C[C@@H]2O (some centres not stated)	> 50 µM	> 50 µM	43.1 µM	> 15.9 µM	0.437 µM	1.81 µM												
NC(=S)NN=C1Cc2ccccc2C1	> 100 µM	> 100 µM	> 100 µM	> 100 µM	> 100 µM	> 100 µM												
CC(=O)OC1OC(C2c3cccc(O)c3C(=O)c3c(O)cc(CO)cc32)C(O)C(O)C1O (configuration not stated)	4.26 µM and 4.09 µM	17 µM and 16.2 µM	7.54 µM and 8.88 µM	> 100 µM and 33.1 µM	22.4 µM and 12.1 µM	29.8 µM and 55.5 µM	1.51 µM and 3.4 µM	9.16 µM and 3.51 µM										
c1ccc(C[N+]23C(CC[C@H]2c2ccccc2)CC[C@H]3c2ccccc2)cc1 (some centres not stated)	19.1 µM	> 100 µM	> 100 µM	> 100 µM	90 µM	57.2 µM												
O=C(Cc1ccccc1)Nc1nc2ccc(Cl)cc2c2nc(-c3ccco3)nn12	> 100 µM	> 100 µM	> 100 µM	> 77.2 µM	> 100 µM	59.7 µM												
CCCCCCCCCCCCCCCCCCOC(COP(=O)(O)OCC1OC(n2cc(F)c(=O)[nH]c2=O)CC1O)COP(=O)(O)OCC1OC(n2ccc(N)nc2=O)C(O)C1O (configuration not stated)	> 100 µM	28.1 µM	> 100 µM	> 100 µM	> 100 µM	49.6 µM												
O=C1C2CCCCC2C(=O)N1n1c(Cc2ccccc2)n[nH]c1=O (configuration not stated)	> 100 µM	> 100 µM	> 100 µM	> 100 µM	> 100 µM	> 100 µM												
O=C(O)C(C(F)(F)F)C(F)(F)F (tested in a mixture with another compound)	> 100 µM	> 100 µM	> 100 µM	> 100 µM	> 100 µM	> 100 µM												
CC(CCCCNC(=O)OC(C)(C)C)NC(=O)NC(C)CCCCNC(=O)OC(C)(C)C (configuration not stated)	> 100 µM	> 100 µM	> 100 µM	> 100 µM	> 100 µM	> 100 µM												
N#CC(C(=S)Nc1ccccc1)=C1Nc2ccccc2N1	> 10 µM	> 10 µM		> 10 µM	> 10 µM				> 10	> 10	> 10	> 10	> 10	> 10	> 10	> 10		
CCC12CN(C(=O)OC)C3C(Br)C1CCC(=O)C32 (configuration not stated)	> 100 µM	> 100 µM	> 100 µM	> 100 µM	> 100 µM	> 100 µM												
CCOC1Oc2ccccc2-c2nc(N)ncc21 (configuration not stated)	> 100 µM	> 100 µM	> 100 µM	61.2 µM	> 100 µM	> 100 µM												
NC(=S)N/N=C(/CCN1CCCC1)CC(C1=C(O)C2=CCCCC2OC1=O)c1ccccc1 (configuration not stated)	> 100 µM	> 100 µM		> 100 µM	> 100 µM	> 100 µM			> 100	> 100		> 100	> 100	> 100		> 100	> 100	
COc1ccc([C@H]2[C@@H]3CCc4ccccc4C3=NN2C(N)=S)cc1OC		> 100 µM		72.4 µM	> 100 µM	> 100 µM			> 100	> 100	93.7	> 100	> 100	> 100		> 100	> 100	
COc1cc([N+](=O)[O-])cc2c1NC(=O)C2(C)SC (configuration not stated)	> 100 µM	> 100 µM	> 100 µM	> 100 µM	> 100 µM	> 100 µM												
CCOC(=O)CCCOc1cc(-c2ccccc2F)nc2cc3c(cc12)OCO3	> 100 µM	> 100 µM	> 100 µM	> 100 µM	55.7 µM	> 100 µM		15 µM										25
Cc1cc(=O)[nH]c(S(=O)(=O)NC(=O)Nc2cccc(Cl)c2)n1	> 100 µM	> 100 µM	> 100 µM	> 100 µM	> 100 µM	> 100 µM												
O=C1NC(=O)C23C(=O)NC(=O)C12C1C=CC3CC1 (configuration not stated)	> 10 µM	> 10 µM	> 10 µM	> 10 µM	> 10 µM	> 10 µM												
CCOC(=O)/C=C(/C(=O)OCC)n1cc(C)c(=O)[nH]c1=O	21.1 µM	8.28 µM	18.4 µM	5.24 µM	6.71 µM	4.52 µM												
O=C(O)c1ccc(C2=Nc3cccc4cccc(c34)N2)cc1	> 100 µM	> 100 µM	> 100 µM	> 100 µM	> 100 µM	> 100 µM												
CCOC(=O)c1cccc(N=Nc2ncc(/C=C/C(=O)OC)[nH]2)c1	30.1 µM	> 100 µM	> 100 µM	> 100 µM	71.1 µM	> 100 µM												
CC(O)/C=C/C1OC(=O)CC1Nc1ccc(C=O)cc1 (configuration not stated)	33.5 µM	> 100 µM	> 100 µM	73.8 µM	> 100 µM	> 100 µM												
COC(OC)[C@@H]1OC[C@H](n2ccc(=O)[nH]c2=O)[C@H]1O	> 100 µM	> 100 µM	> 100 µM	> 100 µM	> 100 µM	> 100 µM												
O=C(c1ccccc1)N1CCC(Nc2cccnc2)O1 (configuration not stated)	> 100 µM	> 100 µM	> 100 µM	> 100 µM	> 100 µM	> 100 µM												
